The numbers were not newly measured in patent US6699847B2, “Antiparasitic formulation” (Pfizer Inc., priority 1998, dated 2004), which cites them from elsewhere.

Regarding `CO[C@H]1C[C@H](O[C@H]2[C@H](C)O[C@@H](O[C@@H]3/C(C)=C/C[C@@H]4C[C@@H](C[C@]5(C=C[C@H](C)[C@@H](C6CCCCC6)O5)O4)OC(=O)[C@@H]4C=C(C)[C@@H](O)[C@H]5OC/C(=C\C=C\[C@@H]3C)[C@]54O)C[C@@H]2OC)O[C@@H](C)[C@@H]1O` [Doramectin], the solubility in water entry is recorded as “sparingly soluble”.
